Data published in paper PMC6001375, “CLERK is a novel receptor kinase required for sensing of root-active CLE peptides in Arabidopsis” (Development (Cambridge, England), 2018).
Entries after “also recorded” stand apart in the source; their conditions may differ.

How the values were obtained:
Arabidopsis root growth = test: Root growth response (CLE resistance/sensitivity) of wild type and mutant seedlings; format: in vivo, Arabidopsis thaliana; conditions: for Root growth response of clerk mutants: clerk mutants vs Col-0 (and bam3 for CLE45), n=13-25 (Fig. 2B), n=16-19 (Fig. 2A)
Description: Arabidopsis thaliana Columbia-0 (Col-0) was used as the wild type for phenotypic analyses and is the background of all mutants investigated: ops-2 (SALK_139316); brx-2 ([Rodrigues et al., 2009]); bam3-2 (SALK_044433) ([DeYoung et al., 2006]); clerk-3 (SALK_066568); ops^E319K ([Rodriguez-Villalon et al., 2014]); makr5 ([Kang and Hardtke, 2016]); nik1 (SALK_017538C); nik2 (SALK_044363C); and sark (SALK_111290), clv2/rlp10-1 (GK-686A09) and crn-10 ([Hazak et al., 2017]). Seeds were surface sterilized, germinated and grown vertically under continuous light at 22°C on 0.5× Murashige and Skoog media supplemented with 1% agar and with or without 0.3% sucrose.
CLE peptides were obtained from a commercial supplier (Genscript), synthesized at >80% purity, diluted in water and used at final concentration as indicated. For root length measurements, plates were scanned at 600 dpi resolution and seedling root length was determined using the Simple Neurite Tracer plug-in ([Longair et al., 2011]) for Fiji software ([Schindelin et al., 2012]).
M2 mutagenized seeds ([Kalmbach et al., 2017]) were screened in tissue culture on media complemented with 10 nM CLE26 peptide. Seedlings with CLE26-resistant root growth were transferred to soil and the phenotype was confirmed in the M3 generation before backcrossing to Col-0 wild type. The causative mutation for CLE26 resistance was then determined by whole-genome sequencing of bulked segregants as described previously ([Kang and Hardtke, 2016]).

[1] = system: root meristem protophloem; test: Protophloem development / CVP2::NLS-VENUS marker in root meristem; format: in vivo, Arabidopsis thaliana; conditions: clerk mutant roots, CLE26 treatment; n=18-30 (Fig. 5D)
Description: Fig. 5. CLERK prevents premature expression of a protophloem marker. (A) Schematic presentation of the protophloem sieve element lineage in the Arabidopsis root meristem. Red asterisk, pericycle cell file; dark-blue asterisk, protophloem sieve element cell file; light-blue asterisk, incipient metaphloem cell file; arrowheads indicate the two periclinal divisions. […] Left: VENUS fluorescence, yellow. Right: overlay of VENUS fluorescence with PI cell wall staining (cyan). Asterisk indicates protophloem sieve element cell file. (D) Quantification of protophloem strand presence/absence in root meristems of a Col-0 wild type or clerk mutant upon CLE26 treatment. Statistically significant differences when compared with mock control are indicated by letters ([…], P<0.001; n=18-30). […] (G) Distance between first detectable CVP2 expression and the quiescent center (QC) in Col-0 wild type and clerk mutants, expressed as cell number. […] (H) Distance between first detectable CVP2 expression and the quiescent center (QC) in Col-0 wild type and clerk mutants, expressed as absolute distance. […] (J) Quantification of cell file number in Col-0 wild type or clerk mutants, counted at the level where protoxylem has differentiated. […] Left: VENUS fluorescence, yellow; Right: overlay of VENUS fluorescence with PI cell wall staining (cyan). […]

[2] = system: root meristem protophloem; conditions: BAM3 necessary; ref Depuydt et al., 2013; Hazak et al., 2017; Kang and Hardtke, 2016; cited from earlier work
Description: The endogenous CLAVATA3/EMBRYO SURROUNDING REGION (CLE) peptides of plants are secreted as propeptides and processed to yield bioactive 12-14 amino acid long ligands ([Cock and McCormick, 2001]; [Ito et al., 2006]; [Kondo et al., 2006]). The Arabidopsis thaliana genome contains 32 CLE genes, which encode 27 distinct CLE peptides ([Goad et al., 2016]; [Ito et al., 2006]; [Strabala et al., 2006]). Exogenous application of chemically synthesized CLE peptides at nanomolar concentrations frequently suppresses Arabidopsis root growth in tissue culture ([Depuydt et al., 2013]; [Fiers et al., 2005]; [ ...

| Sequence | Root growth, 10 confirmed CLE26-resistant mutants (Arabidopsis root growth; 100 nM CLE26, vs Col-0 wild type, ANOVA, P<0.001, n=8-21) | Sensitivity of clerk plants carrying CLERK::CLERK-GFP (Arabidopsis root growth; Fig. 1E) | Root growth response, clerk T-DNA insertion mutant (SALK_066568) (Arabidopsis root growth; Fig. 1E, n=28-47) | Response of brx crn double mutants (Arabidopsis root growth; Fig. S4) | Requirement of CLERK for sensing in the root (Arabidopsis root growth; clerk mutants) | Root growth response of clerk mutants (Arabidopsis root growth) | Response of clerk brx and clerk ops double mutants (Arabidopsis root growth; n=2-25) | Response of combinations of clerk with bam3, makr5 or ops^E319K (Arabidopsis root growth; n=2-25) | CLE sensitivity of clerk mutants with transgenic CLERK wild-type copy (Arabidopsis root growth; original and T-DNA clerk mutants, Fig. 1E, n=28-47) | Sensing with SARK or NIK1 expressed under the CLERK promoter (Arabidopsis root growth; several independent transgenic lines, n=21-43) | Protophloem development in clerk mutants [1] | Effect on protophloem sieve element differentiation [2] |
| --- | --- | --- | --- | --- | --- | --- | --- | --- | --- | --- | --- | --- |
| RKVPRGPDPIHN [CLE26] | substantially resistant; also recorded: statistically significantly different when compared with Col-0 wild type | full sensitivity | strong CLE26 resistance | still CLE26 sensitive | CLERK is required for CLE26 sensing in the root | resistant | both clerk brx and clerk ops were CLE26 sensitive | additive CLE26 resistance | could be recovered | both SARK and NIK1 could replace the CLERK protein to sense CLE26 | maintained protophloem development | – |
| RRVRRGSDPIHN [CLE45] | – | – | – | – | – | resistant | – | – | – | – | – | suppression of protophloem sieve element differentiation |
